Data published in patent US8282688B2, “Laccase mediators and methods of use” (Danisco US Inc., priority 2006, dated 2012).
Where “and” joins values, the source holds several entries; their conditions need not be identical. Equal entries are not always repeated.

Columns and labels:
recombinant laccase D = experiment: Denim swatch bleaching, laccase and mediator concentration, Launder-O-meter (Example 10); type: biochemical, Cerrena unicolor; set-up: key: TCD = √(ΔL²+Δa²+Δb²) in CIE Lab, before vs after treatment; conditions: 60° C., pH 6
Procedure: Laccase enzyme, derived from Cerrena unicolor (Example 7, 8570 U/ml, 4 mg protein/ml) was used in the experiments.
The enzyme incubations were done in an ATLAS LP 2 Launder-O-meter at different conditions in relation to pH, temperature, enzyme concentration and mediator concentration.
Reactions were carried out in 500 ml stainless steel reaction vessels containing 100 ml of liquid. To each vessel five (7×7 cm) stonewashed denim swatches (ACG denim style 80270) and 6 steel balls of 6 mm diameter were added. The reactions vessels were closed and entered into the launder-O-meter that was pre-heated to the desired temperature. The incubation was carried out for 30 minutes after which the swatches were washed with ‘running’ tap water, spin dried in an AEG IPX4 centrifuge and dried with an Elna Press Electronic iron at program cotton and evaluated.
The color of the five denim swatches is measured with a Minolta Chromameter CR 310 in the CIE Lab color space with a D 65 light source. Measurements were done before and after laccase treatment and the results of the five swatches were averaged. The total color difference (TCD) is calculated. The total color difference can be calculated with the formula: TCD=√(ΔL)^2+(Δa)^2+(Δb)^2.
The effect of laccase and mediator concentration was evaluated running the experiments in the tables below at pH 6 (50 mM monosodium phosphate buffer pH adjusted with sodium hydroxide 4N solution) and a temperature of 60° C.
The experiments were done with syringamide (SA)- and syringonitrile (SN) mediator.
100 ml buffer was added to a beaker with five swatches, 7×7 cm. The total weight 12 g, (denim:liquor ratio=1:8).
The amounts of syringamide or syringonitrile mediator as indicated in the tables below were added to each beaker as a dilution of a 275 mM SA—or—SN stock solution in 98% methanol. The laccase was added to each beaker as indicated in the tables below, as dilution of a 400 units/ml laccase stock solution. The beakers were closed and processed at 60° C. as described in the example 8. The swatches were evaluated as described in example 8.

[1] = system: Thielavia laccase (Ecostone LCC10); experiment: Soluble indigo bleaching at two pH values, Thielavia laccase (Example 3); type: biochemical
Procedure: (§1) A saturated solution of indigo in N-methylpyrrolidone (NMP) was prepared by stirring indigo (30 mg) in NMP (10 ml) at room temperature for 5 hours. The NMP solution was diluted 10-fold into an aqueous buffer solution resulting in a blue solution. For example, dilution into 50 mM sodium acetate buffer at pH 5, or 50 mM sodium phosphate buffer at pH 7. Solutions were shaken well immediately before use.
(§2) The assay for the bleaching of the solubilized indigo substrate was performed in a 96-well microtitre plate whereby each well received the soluble indigo solution in 50 mM sodium acetate buffer at pH 5 (180 uL), laccase (10 ppm enzyme) and mediator solution (from a 20 mM stock solution in methanol). The total volume of each well was adjusted to 200 uL with deionzed water. A control containing laccase only was run in duplicate. The plate was sealed and incubated at 50° C. for 2 hours at 800 rpm on a heated agitator (Thermomixer, Eppendorf). Following this period, the plates were unsealed and a solution of ascorbic acid (20 uL of a 10% aqueous solution) added to each well in order to reduce the oxidized forms of the mediators. The extent of indigo bleaching was then assessed by determining the absorbance for each well at 600 nm using a microtitre plate reader. The lower the absorbance reading, the greater the extent of indigo bleaching.
Laccases derived from Myceliophtora (Denilite® II, Novozymes, Bagsvaerd, Denmark), Thielavia (Ecostone LCC10, AB enzymes, Darmstadt, Germany) and Cerrena sp. were assessed for their ability to bleach solubilized indigo in conjunction with low molecular weight mediators at two pH values.
Bleaching of solubilized indigo in 96-well microtitre plates was performed as described in Example 1, using 3 different laccases at pH values of 5 and 7.

[2] = system: Thielavia sp. laccase (Ecostone LCC10); experiment: Bleaching of solubilized indigo, Thielavia sp. laccase with mediators (Example 2); type: biochemical; conditions: laccase 10 ppm, pH 5, 50° C., 2 hours, n = 2
Procedure: An assay for the bleaching of the solubilized indigo substrate by laccase/mediator combinations was performed in a 96-well microtitre plate as follows
as §1, §2

[3] = system: Cerrena unicolor Laccase (recombinant laccase D); experiment: Laccase bleaching of stonewashed denim legs, effect of temperature, Unimac, recombinant laccase D (Example 9); type: biochemical; conditions: laccase 0.05 g/l/0.4 U/ml, pH 6, 30 minutes
Procedure: Denim, 12 legs weighing approximately 3 kg, was desized in a Unimac UF 50 washing machine under the following conditions: • Desizing for 15 minutes at 10:1 liquor ratio 50° C. with 0.5 g/l (15 g) of Optisize 160 amylase (Genencor) and 0.5 g/l (15 g) of a non-ionic surfactant (e.g. Rucogen BFA, (Rudolf Chemie) or Ultravon GPN, (Huntsman)) • 2 cold rinses for 5 minutes at 30:1 liquor ratio.
Following desizing the denim was stonewashed in a Unimac UF 50 washing machine under the following conditions: • Cold rinse for 5 minutes at 10:1 liquor ratio • Stonewashing for 60 minutes at 10:1 liquor ratio 55° C. with 1 kg of pumice stone, citrate buffer (30 g tri-sodium citrate dihydrate and 30 g citric acid monohydrate) and 35 g IndiAge 2XL cellulase (Genencor). • 2 cold rinses for 5 minutes at 30:1 liquor ratio.
Denim legs were evaluated with a Minolta Chromameter CR 310 in the CIE Lab color space with a D 65 light source. Measurements were done only after laccase treatment. For each denim leg 8 measurements are taken and the result of the 12 legs (96 measurements) was averaged.
Laccase bleaching of stonewashed denim: Denim, 12 legs approximately 3 kg, was desized and stonewashed as described in example 8. After stonewashing a laccase treatment was done in a Unimac UF 50 washing machine according to the following process: • 30 minutes at 10:1 liquor ratio, • pH 6 (21 g monosodium phosphate and 5 g adipic acid, recombinant laccase D) or pH 4.8 (8.6 g monosodium phosphate and 16.8 g of adipic acid, Novoprime Base 268 laccase) • laccase (recombinant laccase D or Novoprime Base 268) • mediator (syringamide (SA) and syringonitrile (SN)) • After laccase treatment the denim use rinsed twice in cold water for 5 minutes at 30:1 liquor ratio.

[4] = laccase 10 μl/l, mediator 0.10 mM
[5] = laccase 10 μl/l, mediator 0.55 mM
[6] = laccase 10 μl/l, mediator 1.00 mM
[7] = laccase 33 μl/l, mediator 0.33 mM
[8] = laccase 33 μl/l, mediator 0.78 mM
[9] = laccase 55 μl/l, mediator 0.10 mM
[10] = laccase 55 μl/l, mediator 0.55 mM
[11] = laccase 55 μl/l, mediator 1.00 mM
[12] = laccase 78 μl/l, mediator 0.33 mM
[13] = laccase 78 μl/l, mediator 0.78 mM
[14] = laccase 100 μl/l, mediator 0.10 mM
[15] = laccase 100 μl/l, mediator 0.55 mM
[16] = laccase 100 μl/l, mediator 1.00 mM

Row | SMILES | TCD (total color difference) (recombinant laccase D; [4]) | TCD (total color difference) (recombinant laccase D; [5]) | TCD (total color difference) (recombinant laccase D; [6]) | TCD (total color difference) (recombinant laccase D; [7]) | TCD (total color difference) (recombinant laccase D; [8]) | TCD (total color difference) (recombinant laccase D; [9]) | TCD (total color difference) (recombinant laccase D; [10]) | TCD (total color difference) (recombinant laccase D; [11]) | TCD (total color difference) (recombinant laccase D; [12]) | TCD (total color difference) (recombinant laccase D; [13]) | TCD (total color difference) (recombinant laccase D; [14]) | TCD (total color difference) (recombinant laccase D; [15]) | TCD (total color difference) (recombinant laccase D; [16]) | also measured
1 | COc1cc(C(N)=O)cc(OC)c1O [SA, 4-carboxamido-2,6-dimethoxyphenol] | 2.5 | 3.6 | 3.2 | 4.6 | 5.5 | 3.1 | 5.3 and 5.8 | 6.2 | 4.4 | 5.9 | 3.2 and 2.9 | 5.3 | 5.6 and 6.0 | ΔA600 Thielavia ([1]; pH 5, mediator 250 uM): 0.170; ΔA600 Thielavia ([1]; pH 7, mediator 250 uM): 0.162; ΔA600 (change in absorbance at 600 nm relative to control) ([2]; mediator 50 mM Concentration (head)): 0.088; ΔA600 (change in absorbance at 600 nm relative to control) ([2]; mediator 500 mM Concentration (head)): 0.170; Bleaching level (CIE L) ([3]; mediator 0.33 mM, 40 ° C.): 35.6; Bleaching level (CIE L) ([3]; mediator 0.33 mM, 60 ° C.): 35.6
2 | COc1cc(C#N)cc(OC)c1O [SN, 4-cyano-2,6-dimethoxyphenol] | 2.7 | 3.4 | 3.8 | 4.4 | 5.5 | 3.5 | 6.0 and 6.3 | 7.0 | 5.6 | 7.1 | 4.0 and 4.1 | 7.1 | 7.6 and 8.1 | Bleaching level (CIE L) ([3]; mediator 0.47 mM, 40 ° C.): 35.7; Bleaching level (CIE L) ([3]; mediator 0.47 mM, 60 ° C.): 35.9
